Experimental findings from ChEMBL document CHEMBL1772989, “Non-peptide metabolites from the genus Bacillus” (J Nat Prod, 2011) are described below.

One test has as its system Staphylococcus aureus. The experiment in a line: Antibacterial activity against Staphylococcus aureus ATCC 10832. It is filed as functional.
For another test, the system named is Pseudomonas aeruginosa. The test is described as follows: Antibacterial activity against Pseudomonas aeruginosa ATCC 14210. The format is functional.

Broadly, the MIC is the lowest concentration found to suppress growth. Read a low MIC as inhibition by little substance.

Turning to `CC(C)CCCCCCCC(=O)N[C@@H](CC(N)=O)C(=O)O` [LIPOAMIDE A], the MIC against Staphylococcus aureus and in the test with Pseudomonas aeruginosa was greater than 100 µg/mL in each case.

As to `CC(C)CCCCCCCCC(=O)N[C@@H](CC(N)=O)C(=O)O` [LIPOAMIDE B], the MIC in the test with Staphylococcus aureus and against Pseudomonas aeruginosa was greater than 100 µg/mL throughout.

`CC(C)CCCCCCCCCC(=O)N[C@@H](CC(N)=O)C(=O)O` [LIPOAMIDE C]: the MIC in the test with Staphylococcus aureus and with Pseudomonas aeruginosa was greater than 100 µg/mL each time.
